From ChEMBL document CHEMBL5625248, “Identification of unique indolylcyanoethylenyl sulfonylanilines as novel structural scaffolds of potential antibacterial agents” (Eur J Med Chem, 2023)
Converted amounts (≈) assume the structure as drawn. The source made the active and inactive calls. No cut-off for these calls is given here.

Tests used:
Staphylococcus aureus [1] = assay: Antibacterial activity against methicilin-resistant Staphylococcus aureus N315 assessed as inhibition of bacterial growth incubated for 18 hrs by two fold broth microdilution assay; assay type: functional
Enterococcus faecalis = assay: Antibacterial activity against Enterococcus faecalis assessed as inhibition of bacterial growth incubated for 18 hrs by two fold broth microdilution assay; assay type: functional
Staphylococcus aureus [2] = assay: Antibacterial activity against Staphylococcus aureus assessed as inhibition of bacterial growth incubated for 18 hrs by two fold broth microdilution assay; assay type: functional
Staphylococcus aureus [3] = assay: Antibacterial activity against Staphylococcus aureus ATCC 25923 assessed as inhibition of bacterial growth incubated for 18 hrs by two fold broth microdilution assay; assay type: functional
Staphylococcus aureus [4] = assay: Antibacterial activity against Staphylococcus aureus ATCC 29213 assessed as inhibition of bacterial growth incubated for 18 hrs by two fold broth microdilution assay; assay type: functional
Klebsiella pneumoniae = assay: Antibacterial activity against Klebsiella pneumoniae assessed as inhibition of bacterial growth incubated for 18 hrs by two fold broth microdilution assay; assay type: functional
Escherichia coli [5] = assay: Antibacterial activity against Escherichia coli assessed as inhibition of bacterial growth incubated for 18 hrs by two fold broth microdilution assay; assay type: functional
Pseudomonas aeruginosa [6] = assay: Antibacterial activity against Pseudomonas aeruginosa assessed as inhibition of bacterial growth incubated for 18 hrs by two fold broth microdilution assay; assay type: functional
Acinetobacter baumannii [7] = assay: Antibacterial activity against Acinetobacter baumannii assessed as inhibition of bacterial growth incubated for 18 hrs by two fold broth microdilution assay; assay type: functional
Pseudomonas aeruginosa [8] = assay: Antibacterial activity against Pseudomonas aeruginosa ATCC 27853 assessed as inhibition of bacterial growth incubated for 18 hrs by two fold broth microdilution assay; assay type: functional
Escherichia coli [9] = assay: Antibacterial activity against Escherichia coli ATCC 25922 assessed as inhibition of bacterial growth incubated for 18 hrs by two fold broth microdilution assay; assay type: functional
Acinetobacter baumannii [10] = assay: Bactericidal activity against Acinetobacter baumannii assessed as reduction in colony forming unit at MIC by time-kill kinetic assay; assay type: functional
Escherichia coli [11] = assay: Bactericidal activity against Escherichia coli ATCC 25922 assessed as reduction in colony forming unit at MIC by time-kill kinetic assay; assay type: functional
Acinetobacter baumannii [12] = assay: Bactericidal activity against Acinetobacter baumannii assessed as reduction in bacterial growth at 4 times MIC observed after 2 hrs by time-kill kinetic assay; assay type: functional; design: scale not given: the % may be the effect or the level left
Escherichia coli [13] = assay: Bactericidal activity against Escherichia coli ATCC 25922 assessed as reduction in bacterial growth at 4 times MIC observed after 2 hrs by time-kill kinetic assay; assay type: functional; design: scale not given: the % may be the effect or the level left
Acinetobacter baumannii [14] = assay: Induction of drug resistance against Acinetobacter baumannii assessed as fold increase at MIC measured after 16 passages; assay type: functional
Escherichia coli [15] = assay: Induction of drug resistance against Escherichia coli ATCC 25922 assessed as fold increase at MIC measured after 16 passages; assay type: functional
[16] = Hemolytic activity in human RBC assessed as hemolysis at 512 ug/ml incubated for 1 hr relative to control; assay type: toxicity, cell-based, Erythrocyte; settings: human red blood cells (erythrocytes), at 512 µg/mL, read-out: Activity
Erythrocyte = assay: Hemolytic activity in human RBC assessed as intact cell surface at 512 ug/ml incubated for 1 hr by microscopic analysis; assay type: toxicity, cell-based; settings: dose 512 µg/ml
[17] = Cytotoxicity against human Colon epithelial cell at 20 ug/ml; assay type: toxicity, cell-based; settings: dose 20 µg/ml
[18] = Cytotoxicity against human Squamous epithelial cell at 20 ug/ml; assay type: toxicity, cell-based; settings: dose 20 µg/ml
[19] = Cytotoxicity against human Colon epithelial cell assessed as cell viability upto 50 ug/ml relative to control; assay type: toxicity, cell-based; settings: colon epithelial cells, up to 50 µg/mL, read-out: Activity
[20] = Cytotoxicity against human Squamous epithelial cell assessed as cell viability upto 50 ug/ml relative to control; assay type: toxicity, cell-based; settings: squamous epithelial cells, up to 50 µg/mL, read-out: Activity
Acinetobacter baumannii [21] = assay: Antibacterial activity against Acinetobacter baumannii assessed as reduction in biofilm formation; assay type: functional, organism-based
Escherichia coli [22] = assay: Antibacterial activity against Escherichia coli ATCC 25922 assessed as reduction in biofilm formation; assay type: functional, organism-based
Acinetobacter baumannii [23] = assay: Antibacterial activity against Acinetobacter baumannii assessed as reduction in biofilm formation at 8 times MIC relative to control; assay type: functional; design: scale not given: the % may be the effect or the level left
Escherichia coli [24] = assay: Antibacterial activity against Escherichia coli ATCC 25922 assessed as reduction in biofilm formation at 8 times MIC relative to control; assay type: functional; design: scale not given: the % may be the effect or the level left
Cell membrane [25] = assay: Induction of membrane depolarization in Acinetobacter baumannii assessed as increase in fluorescence intensity measured at 20 to 120 min by DiSC3(5) dye-based fluorescence assay; assay type: cell membranes; settings: time 20-120 min
Cell membrane [26] = assay: Induction of membrane depolarization in Escherichia coli ATCC 25922 assessed as increase in fluorescence intensity measured at 20 to 120 min by DiSC3(5) dye-based fluorescence assay; assay type: cell membranes; settings: time 20-120 min
Cell membrane [27] = assay: Induction of membrane depolarization in Acinetobacter baumannii assessed as increase in fluorescence intensity at 1 to 8 times MIC by DiSC3(5) dye-based fluorescence assay; assay type: cell membranes; settings: TDE = time-dependent effect
Cell membrane [28] = assay: Induction of membrane depolarization in Escherichia coli ATCC 25922 assessed as increase in fluorescence intensity at 1 to 8 times MIC by DiSC3(5) dye-based fluorescence assay; assay type: cell membranes; settings: TDE = time-dependent effect
Cell membrane [29] = assay: Induction of outer membrane permeabilization in Acinetobacter baumannii assessed as increase in fluorescence intensity by NPN-dye based fluorescence analysis; assay type: cell membranes
Cell membrane [30] = assay: Induction of outer membrane permeabilization in Escherichia coli ATCC 25922 assessed as increase in fluorescence intensity by NPN-dye based fluorescence analysis; assay type: cell membranes
Cell membrane [31] = assay: Induction of inner membrane permeabilization in Acinetobacter baumannii assessed as increase in fluorescence intensity by PI staining based fluorescence analysis; assay type: cell membranes
Cell membrane [32] = assay: Induction of inner membrane permeabilization in Escherichia coli ATCC 25922 assessed as increase in fluorescence intensity by PI staining based fluorescence analysis; assay type: cell membranes
Cell membrane [33] = assay: Induction of inner membrane damage in Acinetobacter baumannii at 1 to 4 times MIC by PI staining fluorescence microscopy; assay type: cell membranes
Cell membrane [34] = assay: Induction of inner membrane damage in Escherichia coli ATCC 25922 at 1 to 4 times MIC by PI staining fluorescence microscopy; assay type: cell membranes
Cell membrane [35] = assay: Induction of cell membrane disruption in Acinetobacter baumannii assessed as cell membrane shrank at 2 times MIC by scanning electron microscopic analysis; assay type: cell membranes
Cell membrane [36] = assay: Induction of cell membrane disruption in Escherichia coli ATCC 25922 assessed as cell membrane shrank at 2 times MIC by scanning electron microscopic analysis; assay type: cell membranes
Cell membrane [37] = assay: Induction of cell membrane disruption in Acinetobacter baumannii assessed as increase in protein leakage at 0.5 to 8 times MIC; assay type: cell membranes
Cell membrane [38] = assay: Induction of cell membrane disruption in Escherichia coli ATCC 25922 assessed as increase in protein leakage at 0.5 to 8 times MIC; assay type: cell membranes
Acinetobacter baumannii [39] = assay: Antibacterial activity against Acinetobacter baumannii assessed as reduction in metabolic activity by alamar blue staining based assay; assay type: functional, organism-based
Escherichia coli [40] = assay: Antibacterial activity against Escherichia coli ATCC 25922 assessed as reduction in metabolic activity by alamar blue staining based assay; assay type: functional, organism-based
Acinetobacter baumannii [41] = assay: Antibacterial activity against Acinetobacter baumannii assessed as reduction in LDH activity; assay type: functional, organism-based
Escherichia coli [42] = assay: Antibacterial activity against Escherichia coli ATCC 25922 assessed as reduction in LDH activity; assay type: functional, organism-based
Acinetobacter baumannii [43] = assay: Antibacterial activity against Acinetobacter baumannii assessed as increase in intracellular ROS production by DCFH-DA staining based assay; assay type: functional, organism-based
Escherichia coli [44] = assay: Antibacterial activity against Escherichia coli ATCC 25922 assessed as increase in intracellular ROS production by DCFH-DA staining based assay; assay type: functional, organism-based
Acinetobacter baumannii [45] = assay: Antibacterial activity against Acinetobacter baumannii assessed as increase in intracellular ROS production by measuring green fluorescence by DCFH-DA staining based microscopic analysis; assay type: functional, organism-based
Escherichia coli [46] = assay: Antibacterial activity against Escherichia coli ATCC 25922 assessed as increase in intracellular ROS production by measuring green fluorescence by DCFH-DA staining based microscopic analysis; assay type: functional, organism-based
Acinetobacter baumannii [47] = assay: Induction of oxidative stress in Acinetobacter baumannii assessed as decrease in GSH activity by Ellman's method; assay type: functional, organism-based
Escherichia coli [48] = assay: Induction of oxidative stress in Escherichia coli ATCC 25922 assessed as decrease in GSH activity by Ellman's method; assay type: functional, organism-based
Calf thymus DNA [49] = assay: Binding affinity to calf thymus DNA assessed as DNA intercalation by measuring hypochromic shift by absorbance based UV-Vis spectroscopic analysis; assay type: nucleic-acid assay; settings: Bos taurus
Calf thymus DNA [50] = assay: Binding affinity to calf thymus DNA assessed as decrease in fluorescence intensity of AO-DNA binding by acridine orange probe based competitive binding assay; assay type: nucleic-acid assay; settings: Bos taurus

Work on `N#C/C(=C\c1cn(CCO)c2ccccc12)S(=O)(=O)c1ccc(N)cc1` yielded an MIC (Staphylococcus aureus [1]) of 2 µg/mL (≈ 5.44 µM), an MIC (Enterococcus faecalis) of 4 µg/mL (≈ 10.9 µM) and an MIC (Staphylococcus aureus [2]) of 2 µg/mL (≈ 5.44 µM). For the same compound, the MIC (Staphylococcus aureus [3]) was 1 µg/mL (≈ 2.72 µM), the MIC (Staphylococcus aureus [4]) was 2 µg/mL (≈ 5.44 µM) and the MIC (Klebsiella pneumoniae) was 8 µg/mL (≈ 21.8 µM). It also gave an MIC (Escherichia coli [5]) of 8 µg/mL (≈ 21.8 µM), an MIC (Pseudomonas aeruginosa [6]) of 2 µg/mL (≈ 5.44 µM) and an MIC (Acinetobacter baumannii [7]) of 0.5 µg/mL (≈ 1.36 µM). For the same compound, the MIC (Pseudomonas aeruginosa [8]) was 4 µg/mL (≈ 10.9 µM), the MIC (Escherichia coli [9]) was 0.5 µg/mL (≈ 1.36 µM) and the Activity (Acinetobacter baumannii [10]) was 2 log10CFU. For the same compound, the Activity (Escherichia coli [11]) was 2.5 log10CFU, the Activity (Acinetobacter baumannii [12]) was 57% and the Activity (Escherichia coli [13]) was 57%. For the same compound, the “fold change (FC)” value (Acinetobacter baumannii [14]) was 8, the fold change (FC) (Escherichia coli [15]) was 8 and the hemolysis at 1 h, 512 ug/ml [16] was under 3%. For the same compound, the Activity (Erythrocyte) was “Non-Toxic”, the Activity [17] was “Non-Toxic” and the Activity [18] was “Non-Toxic”. For the same compound, the viability [19] was over 85%, the viability [20] was over 85% and the Activity (Acinetobacter baumannii [21]) was “Dose-Dependent Effect”. The Activity (Escherichia coli [22]) was “Dose-Dependent Effect”, the Activity (Acinetobacter baumannii [23]) was 39% and the Activity (Escherichia coli [24]) was 21%. The Activity (Cell membrane [25]) was “Dose-Dependent Effect”, the Activity (Cell membrane [26]) was “Dose-Dependent Effect” and the Activity (Cell membrane [27]) was “Tde”. For the same compound, the Activity (Cell membrane [28]) was “Tde”, the Activity (Cell membrane [29]) was “Dose-Dependent Effect” and the Activity (Cell membrane [30]) was “Dose-Dependent Effect”. The Activity (Cell membrane [31]) was “Dose-Dependent Effect”, the Activity (Cell membrane [32]) was “Dose-Dependent Effect” and the Activity (Cell membrane [33]) was “Active”. For the same compound, the Activity (Cell membrane [34]) was “Active”, the Activity (Cell membrane [35]) was “Active” and the Activity (Cell membrane [36]) was “Active”. The Activity (Cell membrane [37]) was “Active”, the Activity (Cell membrane [38]) was “Active” and the Activity (Acinetobacter baumannii [39]) was “Dose-Dependent Effect”. For the same compound, the Activity (Escherichia coli [40]) was “Dose-Dependent Effect”, the Activity (Acinetobacter baumannii [41]) was “Dose-Dependent Effect” and the Activity (Escherichia coli [42]) was “Dose-Dependent Effect”. For the same compound, the Activity (Acinetobacter baumannii [43]) was “Dose-Dependent Effect”, the Activity (Escherichia coli [44]) was “Dose-Dependent Effect” and the Activity (Acinetobacter baumannii [45]) was “Dose-Dependent Effect”. For the same compound, the Activity (Escherichia coli [46]) was “Dose-Dependent Effect”, the Activity (Acinetobacter baumannii [47]) was “Dose-Dependent Effect” and the Activity (Escherichia coli [48]) was “Dose-Dependent Effect”. For the same compound, the Activity (Calf thymus DNA [49]) was “Active” and the Activity (Calf thymus DNA [50]) was “Active”.
